Read-outs that look alike come from different tables or passages of the source.
Columns and labels:
[1] = male and female Wistar rats, highest dose tested
[2] = four rabbits, topically twice daily (0.6 mg/kg-day), ten days; limit of detection approximately 10 ng/ml
Experimental: (§1) Serum samples were collected at 2, 5 and 21 hours after the first application, and once every other day, thereafter. Serum samples were processed and analyzed by HPLC.

[3] = probit analysis
[4] = rabbits, topical twice daily, ten days
Experimental: as §1
The rabbits were also observed daily for signs of cutaneous irritation.

[5] = Systemic toxicity, repeated i.p. injection in mice; format: in vivo; settings: i.p.
Experimental: Systemic toxicity was orientationally evaluated by i.p. injection every 2nd day in mice. […] For BP-34, the corresponding values were 150 mg/kg bw and 300 mg/kg bw.
The maximum tolerated dose should thus be approximately 300 mg/kg. For BP-34, i.p. injections of 100-300 mg/kg produce no mortalities in mice. […] Therefore, the maximum tolerated dose of BP-34 should be approximately 250 mg/kg.

For `CC(O)(CNC(=O)C(F)(F)F)C(=O)Nc1ccc([N+](=O)[O-])c(C(F)(F)F)c1` (centres unmarked) [BP-766, 4-nitro-3-trifluoromethyl-N-(2′-hydroxy-2′-methyl-3′-N-(trifluoromethylamido)propionyl) aniline], the “Effect on effluvium of the frontal hairline” value (androgenic alopecia; six volunteers (4 male, 2 female), 2% solution, 1 ml twice daily, after 2 weeks) was “arrested the effluvium of the frontal hairline in all six volunteers”, the “Dermal irritation” value (androgenic alopecia; six volunteers, 2% solution in anhydrous isopropanol, 1 ml twice daily (0.6 mg/kg), 8 weeks) was “no dermal irritation” and the “Regrowth” value (androgenic alopecia; two volunteers, after 4 months use) was “evident regrowth”. For the same molecule, the “LD50, acute oral” value [1] was greater than 2500 mg/kg body weight, the “BP-766 and/or BP-34 in serum after topical application” value [2] was “No. BP-766 or BP-34 were found in any of the samples” and the “% BP-766” value (60/40 EtOH/H2O, 55° C., 0 hours) was 100%. The “% BP-766” value (60/40 EtOH/H2O, 55° C., 24 hours) was 98.1%, the “% BP-766” value (60/40 EtOH/H2O, 55° C., 48 hours) was 98.2% and the “% BP-766” value (60/40 EtOH/H2O, RT, 0 hours) was 100%. The “% BP-766” value (60/40 EtOH/H2O, RT, 24 hours) was 99.9%, the “% BP-766” value (60/40 EtOH/H2O, RT, 48 hours) was 99.69% and the “% BP-766” value (Isopropanol (3-5% water), 55° C., 0 hours) was 100%. For the same molecule, the “% BP-766” value (Isopropanol (3-5% water), 55° C., 6 hours) was 99.6%, the “% BP-766” value (Isopropanol (3-5% water), 55° C., 24 hours) was 99.1% and the “% BP-766” value (Isopropanol (3-5% water), 55° C., 144 hours) was 98.7%. For the same molecule, the “% BP-766” value (anhydrous isopropanol, 50° C., 0 weeks) was 100%, the “% BP-766” value (anhydrous isopropanol, 50° C., 1 week) was 99.6% and the “% BP-766” value (anhydrous isopropanol, 50° C., 2 weeks) was 99.4%. For the same molecule, the “% BP-766” value (anhydrous isopropanol, 50° C., 3 weeks) was 99.3%, the “% BP-766” value (anhydrous isopropanol, 50° C., 4 weeks) was 99.2% and the “% BP-766” value (anhydrous isopropanol, 50° C., 5 weeks) was 98.9%. For the same molecule, the “% BP-766” value (anhydrous isopropanol, 50° C., 6 weeks) was 98.8%, the “% BP-766” value (anhydrous isopropanol, 50° C., 7 weeks) was 98.3% and the “% BP-766” value (anhydrous isopropanol, 50° C., 8 weeks) was 98.4%. The “LD50, acute oral” value ([3]; female NMRI mice) was 2232.0 mg/kg, the “LD50, acute oral” value ([3]; male NMRI mice) was 2871.7 mg/kg and the “Signs of cutaneous irritation” value [4] was “No signs of irritation”. For the same molecule, the Maximum tolerated dose [5] was “approximately 300 mg/kg” and the “LD50 (daily dose for seven days that resulted in 50% mortality)” value ([5]; daily for seven days) was 450 mg/kg bw.

Reference: US6472415B1, “Androgen receptor suppressors in the therapy and diagnosis of prostate cancer, alopecia and other hyper-androgenic syndromes” (priority 1998, dated 2002)
